# Species on record: Rattus norvegicus
# Assay: DrugMatrix - Regimen: Daily Repeat
# Assay type: toxicity, organism-based, Sprague-Dawley
# Parameters: regimen Daily Repeat, gender Male, age 6-8 weeks
# Settings: in vivo, iv, vehicle 100 % SALINE; for ABSOLUTE BASOPHIL / ABSOLUTE EOSINOPHIL / ABSOLUTE LYMPHOCYTE / ABSOLUTE MONOCYTE / ABSOLUTE SEGMENTED NEUTROPHIL / BASOPHIL / EOSINOPHIL / ERYTHROCYTE COUNT / HEMATOCRIT / HEMOGLOBIN / LEUKOCYTE COUNT / LYMPHOCYTE / MEAN CORPUSCULAR HEMOGLOBIN / MEAN CORPUSCULAR HEMOGLOBIN CONCENTRATION / MEAN CORPUSCULAR VOLUME / MONOCYTE / NEUTROPHIL / NUCLEATED RED BLOOD CELLS / PLATELET COUNT: tissue Blood; for ALANINE AMINOTRANSFERASE / ALBUMIN / ALKALINE PHOSPHATASE / ASPARTATE AMINOTRANSFERASE / BLOOD UREA NITROGEN / CARBON DIOXIDE / CHLORIDE / CHOLESTEROL / CREATINE PHOSPHOKINASE / CREATININE / GLUCOSE / LACTATE DEHYDROGENASE / LIPASE / PHOSPHORUS / POTASSIUM / SODIUM / TOTAL BILIRUBIN / TOTAL PROTEIN / URIC ACID: tissue Plasma
# [1] = 33 mg/kg, 72 h, dose level Low, time 3 day
# [2] = 33 mg/kg, 120 h, dose level Low, time 5 day
# [3] = 1000 mg/kg, 72 h, dose level High, time 3 day
# [4] = 1000 mg/kg, 120 h, dose level High, time 5 day
smiles,measurement,setting,value
CO/N=C(\C(=O)N[C@@H]1C(=O)N2C(C(=O)O)=C(COC(C)=O)CS[C@H]12)c1csc(N)n1 [CEFOTAXIME],ABSOLUTE BASOPHIL,[1],0 CELLS/uL
same,ABSOLUTE EOSINOPHIL,[1],0 CELLS/uL
same,ABSOLUTE LYMPHOCYTE,[1],11282.67 CELLS/uL
same,ABSOLUTE MONOCYTE,[1],120 CELLS/uL
same,ABSOLUTE SEGMENTED NEUTROPHIL,[1],730.67 CELLS/uL
same,BASOPHIL,[1],0%
same,EOSINOPHIL,[1],0%
same,ERYTHROCYTE COUNT,[1],5.79 x10E6/uL
same,HEMATOCRIT,[1],35.7%
same,HEMOGLOBIN,[1],13.43 G/DL
same,LEUKOCYTE COUNT,[1],12.13 x10E3/uL
same,LYMPHOCYTE,[1],93%
same,MEAN CORPUSCULAR HEMOGLOBIN,[1],23.2 pg
same,MEAN CORPUSCULAR HEMOGLOBIN CONCENTRATION,[1],37.63 G/DL
same,MEAN CORPUSCULAR VOLUME,[1],61.63 fL
same,MONOCYTE,[1],0.67%
same,NEUTROPHIL,[1],6.33%
same,NUCLEATED RED BLOOD CELLS,[1],0 /100WBC
same,PLATELET COUNT,[1],1231.67 x10E3/uL
same,ALANINE AMINOTRANSFERASE,[1],55 u/L
same,ALBUMIN,[1],4.17 G/DL
same,ALKALINE PHOSPHATASE,[1],343 u/L
same,ASPARTATE AMINOTRANSFERASE,[1],90.67 u/L
same,BLOOD UREA NITROGEN,[1],15.67 mg/dL
same,CARBON DIOXIDE,[1],25.67 mmol/L
same,CHLORIDE,[1],103.33 MEQ/L
same,CHOLESTEROL,[1],73.67 mg/dL
same,CREATINE PHOSPHOKINASE,[1],330.67 u/L
same,CREATININE,[1],0.38 mg/dL
same,GLUCOSE,[1],167.33 mg/dL
same,LACTATE DEHYDROGENASE,[1],139.33 u/L
same,LIPASE,[1],12 u/L
same,PHOSPHORUS,[1],14.17 mg/dL
same,POTASSIUM,[1],7.29 MEQ/L
same,SODIUM,[1],146.03 MEQ/L
same,TOTAL BILIRUBIN,[1],0.17 mg/dL
same,TOTAL PROTEIN,[1],5.8 G/DL
same,URIC ACID,[1],2.07 mg/dL
same,ABSOLUTE BASOPHIL,[2],0 CELLS/uL
same,ABSOLUTE EOSINOPHIL,[2],0 CELLS/uL
same,ABSOLUTE LYMPHOCYTE,[2],11544.67 CELLS/uL
same,ABSOLUTE MONOCYTE,[2],213 CELLS/uL
same,ABSOLUTE SEGMENTED NEUTROPHIL,[2],1075.67 CELLS/uL
same,BASOPHIL,[2],0%
same,EOSINOPHIL,[2],0%
same,ERYTHROCYTE COUNT,[2],5.16 x10E6/uL
same,HEMATOCRIT,[2],32.83%
same,HEMOGLOBIN,[2],12.33 G/DL
same,LEUKOCYTE COUNT,[2],12.83 x10E3/uL
same,LYMPHOCYTE,[2],90%
same,MEAN CORPUSCULAR HEMOGLOBIN,[2],23.93 pg
same,MEAN CORPUSCULAR HEMOGLOBIN CONCENTRATION,[2],37.77 G/DL
same,MEAN CORPUSCULAR VOLUME,[2],63.47 fL
same,MONOCYTE,[2],1.67%
same,NEUTROPHIL,[2],8.33%
same,NUCLEATED RED BLOOD CELLS,[2],0 /100WBC
same,PLATELET COUNT,[2],1107.67 x10E3/uL
same,ALANINE AMINOTRANSFERASE,[2],62.33 u/L
same,ALBUMIN,[2],4.3 G/DL
same,ALKALINE PHOSPHATASE,[2],354.67 u/L
same,ASPARTATE AMINOTRANSFERASE,[2],90.33 u/L
same,BLOOD UREA NITROGEN,[2],17.67 mg/dL
same,CARBON DIOXIDE,[2],23 mmol/L
same,CHLORIDE,[2],104.67 MEQ/L
same,CHOLESTEROL,[2],70.33 mg/dL
same,CREATINE PHOSPHOKINASE,[2],349.67 u/L
same,CREATININE,[2],0.49 mg/dL
same,GLUCOSE,[2],153 mg/dL
same,LACTATE DEHYDROGENASE,[2],186 u/L
same,LIPASE,[2],11 u/L
same,PHOSPHORUS,[2],11.7 mg/dL
same,POTASSIUM,[2],6.42 MEQ/L
same,SODIUM,[2],146.17 MEQ/L
same,TOTAL BILIRUBIN,[2],0.2 mg/dL
same,TOTAL PROTEIN,[2],6.03 G/DL
same,URIC ACID,[2],1.63 mg/dL
same,ABSOLUTE BASOPHIL,[3],0 CELLS/uL
same,ABSOLUTE EOSINOPHIL,[3],92 CELLS/uL
same,ABSOLUTE LYMPHOCYTE,[3],10640.67 CELLS/uL
same,ABSOLUTE MONOCYTE,[3],57.67 CELLS/uL
same,ABSOLUTE SEGMENTED NEUTROPHIL,[3],1309.67 CELLS/uL
same,BASOPHIL,[3],0%
same,EOSINOPHIL,[3],0.67%
same,ERYTHROCYTE COUNT,[3],5.89 x10E6/uL
same,HEMATOCRIT,[3],38.83%
same,HEMOGLOBIN,[3],13.87 G/DL
same,LEUKOCYTE COUNT,[3],12.1 x10E3/uL
same,LYMPHOCYTE,[3],88%
same,MEAN CORPUSCULAR HEMOGLOBIN,[3],23.53 pg
same,MEAN CORPUSCULAR HEMOGLOBIN CONCENTRATION,[3],35.73 G/DL
same,MEAN CORPUSCULAR VOLUME,[3],65.93 fL
same,MONOCYTE,[3],0.33%
same,NEUTROPHIL,[3],11%
same,NUCLEATED RED BLOOD CELLS,[3],0.33 /100WBC
same,PLATELET COUNT,[3],1356.67 x10E3/uL
same,ALANINE AMINOTRANSFERASE,[3],52.33 u/L
same,ALBUMIN,[3],4.4 G/DL
same,ALKALINE PHOSPHATASE,[3],407.67 u/L
same,ASPARTATE AMINOTRANSFERASE,[3],70.33 u/L
same,BLOOD UREA NITROGEN,[3],16.67 mg/dL
same,CARBON DIOXIDE,[3],29.33 mmol/L
same,CHLORIDE,[3],102.33 MEQ/L
same,CHOLESTEROL,[3],85.33 mg/dL
same,CREATINE PHOSPHOKINASE,[3],225 u/L
same,CREATININE,[3],0.27 mg/dL
same,GLUCOSE,[3],150 mg/dL
same,LACTATE DEHYDROGENASE,[3],77 u/L
same,LIPASE,[3],9.67 u/L
same,PHOSPHORUS,[3],11.8 mg/dL
same,POTASSIUM,[3],6.59 MEQ/L
same,SODIUM,[3],146.77 MEQ/L
same,TOTAL BILIRUBIN,[3],0.17 mg/dL
same,TOTAL PROTEIN,[3],6.43 G/DL
same,URIC ACID,[3],2.1 mg/dL
same,ABSOLUTE BASOPHIL,[4],0 CELLS/uL
same,ABSOLUTE EOSINOPHIL,[4],63 CELLS/uL
same,ABSOLUTE LYMPHOCYTE,[4],13558.67 CELLS/uL
same,ABSOLUTE MONOCYTE,[4],820 CELLS/uL
same,ABSOLUTE SEGMENTED NEUTROPHIL,[4],3591.67 CELLS/uL
same,BASOPHIL,[4],0%
same,EOSINOPHIL,[4],0.33%
same,ERYTHROCYTE COUNT,[4],5.88 x10E6/uL
same,HEMATOCRIT,[4],37.4%
same,HEMOGLOBIN,[4],14 G/DL
same,LEUKOCYTE COUNT,[4],18.03 x10E3/uL
same,LYMPHOCYTE,[4],75.33%
same,MEAN CORPUSCULAR HEMOGLOBIN,[4],23.8 pg
same,MEAN CORPUSCULAR HEMOGLOBIN CONCENTRATION,[4],37.47 G/DL
same,MEAN CORPUSCULAR VOLUME,[4],63.57 fL
same,MONOCYTE,[4],4.67%
same,NEUTROPHIL,[4],19.67%
same,NUCLEATED RED BLOOD CELLS,[4],0 /100WBC
same,PLATELET COUNT,[4],1367 x10E3/uL
same,ALANINE AMINOTRANSFERASE,[4],57.67 u/L
same,ALBUMIN,[4],4 G/DL
same,ALKALINE PHOSPHATASE,[4],325.67 u/L
same,ASPARTATE AMINOTRANSFERASE,[4],70.67 u/L
same,BLOOD UREA NITROGEN,[4],19 mg/dL
same,CARBON DIOXIDE,[4],23.67 mmol/L
same,CHLORIDE,[4],104.67 MEQ/L
same,CHOLESTEROL,[4],86.33 mg/dL
same,CREATINE PHOSPHOKINASE,[4],235.67 u/L
same,CREATININE,[4],0.3 mg/dL
same,GLUCOSE,[4],163.33 mg/dL
same,LACTATE DEHYDROGENASE,[4],138.67 u/L
same,LIPASE,[4],10 u/L
same,PHOSPHORUS,[4],12.13 mg/dL
same,POTASSIUM,[4],6.32 MEQ/L
same,SODIUM,[4],145.77 MEQ/L
same,TOTAL BILIRUBIN,[4],0.13 mg/dL
same,TOTAL PROTEIN,[4],6.3 G/DL
same,URIC ACID,[4],1.7 mg/dL

# Reference: ChEMBL document CHEMBL3885881, “DrugMatrix”
